Data from patent US8551470B2, “Use of substance P for mobilization of Mesenchymal stem cells or proliferation of Mesenchymal stem cells and for wound healing or facilitating wound healing” (Korea Institute of Radiological & Medical Sciences, priority 2004, dated 2013).

Tests used:
[1] = test system: human MSCs; test: MSC migration and collagen degradation on 3-D collagen gel; type: cell-based; conditions: human MSCs on 3-D collagen gel, Substance-P in bottom dishes (0-100 nM), 72 h
Source text: In order to determine the mechanism of Substance-P in the mobilization of MSCs, which are strongly attached onto the endosteal surface of bone marrow, Substance-P was first examined to determine whether it stimulates migration of human MSCs cultured on top of the 3-D collagen gel. The type I collagen gel matrix was made within a 12 mm millicell membrane (milipore: 12-μm pore size) according to the manufacturer's specifications (Nitta gelatin, Japan) and coated overnight with type IV collagen (Nitta). The MSCs were plated on top of the collagen gel, and the outer chamber was filled with Substance-P-containing MSCGM (Cambrex Bio Science). Clearance of the collagen gel was monitored by using the phase contrast microscopy (Olympus). At 72 h, the millicell insert and outer dishes were fixed and stained with hematoxylin, and then the culture supernatants were stored for gelatin zymography.

[2] = test system: MMP-9 and MMP-2; test: Gelatin zymography of MSC culture supernatants; type: cell-based; conditions: culture medium of human MSCs on 3-D collagen gel, Substance-P 0-100 nM
Experimental: The culture supernatants were examined for gelatin zymography. The eletrophoresis was performed for the culture supernatant in which sample buffer without mercaptoethanol was added thereto, in 8% SDS-PAGE. The gel was renatured with 2.5% of Triton x-100 in order to remove the SDS, and then was incubated with a developing buffer (50 mM Tris-HCl, pH 7.2 100 mM NaCl, 20 mM CaCl2) at 37° C. overnight, and the gel was stained with Coomassie blue.

[3] = test system: MMP-1, MMP-2, MMP-9, MT1-MMP, TIMP-1, TIMP-2; test: Immunoprecipitation of 35S-methionine labeled MMPs and TIMPs from MSCs; type: cell-based; conditions: human MSCs, Substance-P 0-100 nM, 35S-methionine labeling 16 h
Experimental: The effect of Substance-P on the biosynthesis of MMPs (matrix metalloproteinases) and their inhibitors was examined by immunoprecipitation of the culture medium and the cell lysates of MSCs which were labeled with ^35S-methionine. The MSCs were treated with Substance-P and labeled with 50 μCi/ml ^35S-methionine (Amersham) for 16 h. The cell lysate was prepared with a lysis buffer (1% of NP40, 10 mM Tris-HCl, pH 7.4, 150 mM NaCl, 1 mM EDTA, 2 mM PMSF). For immunoprecipitation of the secreted MMP-1, MMP-2, MMP-9, TIMP-1 and TIMP-2, the culture supernatants were incubated with their specific antibodies [anti-MMP-1 (chemicon; Cat #MAB3307, 1:100), anti-MMP-2 (Chemicon; Cat #MAB13405, 1:200), anti-MMP-9 (Calbiochem; Cat #444236, 1:100), anti-TIMP-1 (Calbiochem; Cat #IM32L, 1:250) and anti-TIMP-2 (Calbiochem; Cat #IM11L, 1:250)] for 2 h under constant rotation, and the antibodies were collected by protein-G sepharose-4B (Biorad). The pellet was washed three times with an immunoprecipitation buffer ([…], 50 mM Tris-HCl pH 7.4, 0.2% SDS and 0.5% Nadeoxycholate), once with a high salt buffer (10 mM Tris-HCl, pH 7.4, 0.5 M NaCl), and once with a low salt buffer (10 mM Tris-HCl, pH 7.4). After SDS-PAGE, the gel was soaked in 2 M sodium salicylate, dried, and exposed to the X-ray film for 2 weeks. […]

[4] = test system: human MSCs; test: Viable cell count (triphan blue exclusion) of MSCs after Substance-P treatment; type: cell-based; conditions: 3 day
Source text: At 3 day after the treatment of Substance-P, the triphan blue excluded viable cells were counted.

[5] = test system: β-catenin; test: Immunofluorescence staining of β-catenin localization in MSCs; type: cell-based; conditions: human MSCs, 100 nM
Experimental: In order to determine whether Substance-P affects the self-renewal capacity of human MSCs, β-catenin, which is the downstream effecter of the wnt signaling pathway, was examined. MSCs (Cambrex Bio Science) were plated in the density of 1×10^4/well, and incubated with MSCGM (Cambrex Bio Science). After adhesion of the cells, they were treated with Substance-P in each concentration, and incubated for 16 h and 48 h. The MSCs were fixed with 4% of paraformaldehyde and permeabilized with 0.3% of Triton X-100. After blocking nonspecific antigen with 20% normal goat serum which was diluted in phosphate buffer for 1 h, the coverslips were incubated with antibodies against β-catenin (BD Biosciencs; Cat #6010153, 1:100) for 90 min, and then with the FITC-conjugated secondary antibodies for 60 min(Vector). The cells were counterstained with DAPI, and examined by using confocal microscopy (Leica).

[6] = test system: VEGF and fibronectin; test: ELISA and Western blot analysis of VEGF and fibronectin in MSC culture supernatants; type: cell-based, human
Experimental: ELISA and Western blot analysis of fibronectin and VEGF, which are down stream genes of Tcf/β-catenin, were carried out.

[7] = test system: cornea wound; test: Corneal alkali burn rabbit model with intravenous injection of Substance-P; type: in vivo
Source text: New Zealand white rabbits weighing 2-3 kg were purchased from Samtako BioKorea. All these animal experiments were approved by Ethical Committee, Korea Institute of Radiological and Medical Sciences, and Chung-Ang University, and conducted in accordance with the ARVO Statement for the Use of Animal in Ophthalmic and Vision Research. For the alkali burn, the rabbit eyes were placed in contact with a 6 mm piece of circular Whatman filter paper soaked in 1N NaOH for 30 seconds. At 1, 3, 5, 7, 10 and 14 day after the alkali burn, rabbit eyes and whole blood were isolated.
Thus, it was examined whether or not Substance-P only can stimulate corneal wound healing. To estimate the effect of Substance-P intravenous injection on acceleration of the wound healing, Substance-P at dosage 6.5 ug/kg was intravenously injected firstly immediately after the injury, and then secondly on 2nd day after the wound. At day 7 after the intravenous injection, cornea recovery was estimated by naked eyes with taking digital picture. […] The intravenous injection of Substance-P strongly expedited the cornea healing as shown by clearance of corneal opaqueness and disappearance of hemorrhagic area, compared with the non-injected control rabbit.
To observe the wound healing degree in the histological level, rabbit eyes were isolated and fixed, and then, H&E staining and immunostaining for CD29 were carried out.

[8] = Substance-P 6.5 ug/kg i.v. twice, vs non-injected

Substance-P
degradation of the collagen gel and MSC migration [1]: stimulated degradation of the collagen gel and MSC migration in a dose dependent manner
MMP-9 and MMP-2 activities (gelatin zymography) [2]: strong induction of MMP-9 and MMP-2 activities
biosynthesis of MMP-1, MMP-2, MMP-9, and MT1-MMP [3]: stimulated in a dose dependent manner
biosynthesis of inhibitors TIMP-1 and TIMP-2 [3]: inhibited
number of viable cells compared with the control group ([4]; 1 nM Substance-P): 1.7 times
number of viable cells compared with the control group ([4]; 10 nM Substance-P): 2.1 times
number of viable cells compared with the control group ([4]; 100 nM Substance-P): 2.2 times
nuclear localization of β-catenin ([5]; 16 h after Substance-P treatment): only a small number of MSCs at 100 nM showed nuclear localization of β-catenin
nuclear translocation of β-catenin ([5]; 48 h after Substance-P treatment): all the MSCs showed nuclear translocation of β-catenin
fibronectin induction (Western blot) ([6]; culture supernatant of Substance-P treated human MSCs): induced
VEGF induction (ELISA) ([6]; culture supernatants of Substance-P treated human MSCs): induced
corneal regeneration (naked eye, digital picture) ([7]; Substance-P 6.5 ug/kg i.v. immediately after injury and on 2nd day, day 7, vs non-injected control): much faster
CD29 immunostaining of cornea [7, 8]: CD 29+cells of small and spindle shape inside of collagen fibers
wound healing degree in histology (H&E staining) [7, 8]: full thickness coverage of epithelium, well organized vasculature, and ordered array of dense collagen bundles
healing rate (histological observation during the entire period) ([7]; Substance-P i.v. vs control group): speeded up the healing rate faster than the control group
